Measured values from the supplement of paper PMC10307832.

What was measured:
Assay in all cases: relative viability (nuclei count vs DMSO), 5 days (fraction); higher = more cells survive
RO-3306 + Navitoclax = compound: C1=CC2=C(C=CC(=C2)C=C3C(=O)NC(=NCC4=CC=CS4)S3)N=C1 [RO-3306] + CC1(C)CCC(c2ccc(Cl)cc2)=C(CN2CCN(c3ccc(C(=O)NS(=O)(=O)c4ccc(N[C@H](CCN5CCOCC5)CSc5ccccc5)c(S(=O)(=O)C(F)(F)F)c4)cc3)CC2)C1 [Navitoclax] (partner 0.5 µM)
Procedure, shortened: (§1)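 Each reported value is a median over duplicate plates. It expresses relative viability: treated-well nuclei count divided by vehicle-well nuclei count. Lung cancer cell lines in 1536-well plates were dosed by pin tool a day after seeding, alone with one drug or with a fixed anchor-drug dose plus five library-drug doses (not always all listed) in √10 steps, and nuclei were counted after 5 days.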

RO-3306 + Vorinostat = compound: C1=CC2=C(C=CC(=C2)C=C3C(=O)NC(=NCC4=CC=CS4)S3)N=C1 [RO-3306] + O=C(CCCCCCC(=O)Nc1ccccc1)NO [Vorinostat] (partner 1 µM)
Procedure, shortened: as §1

[1] = compound: O=S(=O)(c1ccccc1)N(CC(F)(F)F)c1ccc(C(O)(C(F)(F)F)C(F)(F)F)cc1 + CC1(C)CCC(c2ccc(Cl)cc2)=C(CN2CCN(c3ccc(C(=O)NS(=O)(=O)c4ccc(N[C@H](CCN5CCOCC5)CSc5ccccc5)c(S(=O)(=O)C(F)(F)F)c4)cc3)CC2)C1 [Navitoclax] (partner 0.5 µM)
Procedure, shortened: as §1

RO-3306 + Palbociclib = compound: C1=CC2=C(C=CC(=C2)C=C3C(=O)NC(=NCC4=CC=CS4)S3)N=C1 [RO-3306] + CC(=O)c1c(C)c2cnc(Nc3ccc(N4CCNCC4)cn3)nc2n(C2CCCC2)c1=O [Palbociclib] (partner 0.5 µM)
Procedure, shortened: as §1

Cell Line	relative viability (RO-3306 + Navitoclax; first compound 0.01 µM)	relative viability (RO-3306 + Navitoclax; first compound 0.03162 µM)	relative viability (RO-3306 + Navitoclax; first compound 0.1 µM)	relative viability (RO-3306 + Navitoclax; first compound 0.3162 µM)	relative viability (RO-3306 + Navitoclax; first compound 1 µM)	relative viability (RO-3306 + Vorinostat; first compound 0.01 µM)	relative viability (RO-3306 + Vorinostat; first compound 0.03162 µM)	relative viability (RO-3306 + Vorinostat; first compound 0.1 µM)	relative viability (RO-3306 + Vorinostat; first compound 0.3162 µM)	relative viability (RO-3306 + Vorinostat; first compound 1 µM)	relative viability ([1]; first compound 0.8 µM)	relative viability ([1]; first compound 2.53 µM)	relative viability ([1]; first compound 8 µM)	relative viability (RO-3306 + Palbociclib; first compound 0.01 µM)	relative viability (RO-3306 + Palbociclib; first compound 0.03162 µM)	relative viability (RO-3306 + Palbociclib; first compound 0.1 µM)	relative viability (RO-3306 + Palbociclib; first compound 0.3162 µM)	relative viability (RO-3306 + Palbociclib; first compound 1 µM)
PC-3 [JPC-3]	1.04	0.697	0.816	0.805	0.745	0.649	0.629	0.648	0.735	0.524	0.8	0.724	0.7	0.54	0.563	0.567	0.495	0.569
COR-L23	0.734		0.974	1.01	0.937	0.51	0.412	0.489	0.394	0.344	1.14	1.03	0.913	0.286	0.252	0.293	0.297	0.257
COR-L 105	0.823	0.814	0.742	0.842	0.688	0.779	0.773	0.77	0.759	0.751	0.691	0.668	0.823	0.392	0.408	0.412	0.404	0.385
NCI-H1915	0.808	0.797	0.792	0.781	0.718	0.577	0.564	0.505	0.49	0.505	0.881	0.81	0.786	0.54	0.523	0.518	0.539	0.538
PC-14	1.11		1.06	1.19	1.18	1.03	0.682	0.72	0.796	0.682	1.14	1.11	0.412	0.654	0.4	0.494	0.538	0.577
NCI-H2126	0.868	0.816	0.822	0.858	0.756	0.747	0.679	0.812	0.879	0.733	0.892	0.824	0.877	0.326	0.363	0.369	0.346	0.373
HARA	1.16	1.11	1.17	1.12	1.37	0.493	0.404	0.527	0.638	0.445	1.21	1.14	0.948	0.207		0.265	0.24	0.311
NCI-H23	0.965	0.842	0.87	0.881	0.613	0.828		0.547	0.55	0.501	1.11	0.804	0.817	0.513		0.46	0.472	0.454
NCI-H1793	0.432	0.391	0.46	0.46	0.358	0.985		0.58	0.701	0.721	0.471	0.261	0.301	0.222		0.279	0.296	0.388
